The results in this text go back to ChEMBL document CHEMBL1145372, “(Phenylpiperidinyl)cyclohexylsulfonamides: development of alpha1a/1d-selective adrenergic receptor antagonists for the treatment of benign prostatic hyperplasia/lower urinary tract symptoms (BPH/LUTS)” (Bioorg Med Chem Lett, 2007).

The term Ki denotes the equilibrium dissociation constant of an inhibitor or competing ligand from its target. Read a high Ki as lower affinity.

For test [1], the target named is T1, Alpha-1A adrenergic receptor (Homo sapiens, UniProt P35348).
T1 sequence (P35348 whole entry): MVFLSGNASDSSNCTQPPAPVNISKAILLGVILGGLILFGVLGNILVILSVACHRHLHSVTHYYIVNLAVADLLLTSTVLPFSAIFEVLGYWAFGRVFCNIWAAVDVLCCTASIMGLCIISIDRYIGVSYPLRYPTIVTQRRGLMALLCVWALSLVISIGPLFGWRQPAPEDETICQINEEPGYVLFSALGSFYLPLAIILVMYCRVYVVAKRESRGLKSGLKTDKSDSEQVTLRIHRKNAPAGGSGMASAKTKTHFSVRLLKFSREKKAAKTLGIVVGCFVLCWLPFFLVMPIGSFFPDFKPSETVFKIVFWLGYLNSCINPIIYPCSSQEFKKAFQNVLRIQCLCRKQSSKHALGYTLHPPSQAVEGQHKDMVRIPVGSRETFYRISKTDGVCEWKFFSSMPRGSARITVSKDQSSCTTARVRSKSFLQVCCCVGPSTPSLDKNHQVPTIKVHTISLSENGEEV
Description: Binding affinity to human cloned adrenergic alpha-1a receptor.

The target of test [2] is T2, Alpha-1D adrenergic receptor (Homo sapiens, UniProt P25100).
T2 sequence (P25100 whole entry): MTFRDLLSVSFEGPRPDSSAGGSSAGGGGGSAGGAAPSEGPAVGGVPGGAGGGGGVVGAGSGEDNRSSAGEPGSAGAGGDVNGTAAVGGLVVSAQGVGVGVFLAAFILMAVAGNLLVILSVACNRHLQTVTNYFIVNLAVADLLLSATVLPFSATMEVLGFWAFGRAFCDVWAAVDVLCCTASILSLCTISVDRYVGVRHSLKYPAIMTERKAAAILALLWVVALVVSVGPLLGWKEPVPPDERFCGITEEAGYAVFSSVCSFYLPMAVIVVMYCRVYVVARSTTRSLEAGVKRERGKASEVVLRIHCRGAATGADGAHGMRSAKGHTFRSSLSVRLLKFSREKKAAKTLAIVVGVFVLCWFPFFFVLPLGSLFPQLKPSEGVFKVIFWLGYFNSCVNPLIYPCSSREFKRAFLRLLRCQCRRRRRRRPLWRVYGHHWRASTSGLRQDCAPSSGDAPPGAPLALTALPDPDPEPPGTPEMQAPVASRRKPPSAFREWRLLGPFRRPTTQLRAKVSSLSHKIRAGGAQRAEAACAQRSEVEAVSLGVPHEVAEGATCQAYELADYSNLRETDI
The test is described as follows: Binding affinity to human cloned adrenergic alpha-1d receptor.

The target in the next test is D(2) dopamine receptor (Homo sapiens, UniProt P14416). The test is described as follows: Binding affinity for dopamine D2 receptor.
D(2) dopamine receptor, sequence (P14416 whole entry): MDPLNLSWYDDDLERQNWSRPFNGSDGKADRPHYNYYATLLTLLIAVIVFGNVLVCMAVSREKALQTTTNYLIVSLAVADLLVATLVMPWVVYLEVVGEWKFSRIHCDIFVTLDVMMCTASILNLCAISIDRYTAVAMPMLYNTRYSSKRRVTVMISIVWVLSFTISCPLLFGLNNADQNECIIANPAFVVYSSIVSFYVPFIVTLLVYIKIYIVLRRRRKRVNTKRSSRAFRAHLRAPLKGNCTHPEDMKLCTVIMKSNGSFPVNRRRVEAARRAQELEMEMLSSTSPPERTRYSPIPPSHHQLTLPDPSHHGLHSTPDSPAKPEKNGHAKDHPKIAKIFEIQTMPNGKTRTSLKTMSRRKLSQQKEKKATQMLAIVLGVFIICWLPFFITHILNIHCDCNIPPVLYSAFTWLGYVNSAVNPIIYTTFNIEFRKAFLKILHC
Test [3] deals with T3, Alpha-1B adrenergic receptor (Homo sapiens, UniProt P35368).
T3 sequence (P35368 whole entry): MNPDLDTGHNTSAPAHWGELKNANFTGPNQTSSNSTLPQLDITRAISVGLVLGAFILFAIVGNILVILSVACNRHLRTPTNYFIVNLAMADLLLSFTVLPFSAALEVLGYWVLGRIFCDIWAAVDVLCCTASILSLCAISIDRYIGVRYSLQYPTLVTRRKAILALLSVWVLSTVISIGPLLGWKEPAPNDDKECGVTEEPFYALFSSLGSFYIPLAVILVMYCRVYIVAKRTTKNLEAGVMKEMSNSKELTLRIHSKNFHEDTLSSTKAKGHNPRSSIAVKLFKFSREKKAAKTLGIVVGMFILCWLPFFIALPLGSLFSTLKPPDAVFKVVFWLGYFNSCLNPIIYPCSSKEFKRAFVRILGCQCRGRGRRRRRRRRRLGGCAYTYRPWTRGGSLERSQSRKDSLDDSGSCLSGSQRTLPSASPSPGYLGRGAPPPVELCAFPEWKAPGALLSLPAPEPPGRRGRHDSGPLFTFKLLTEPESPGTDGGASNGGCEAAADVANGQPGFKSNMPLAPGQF
Description: Binding affinity to human cloned adrenergic alpha-1b receptor.

`COc1ccc(S(=O)(=O)N[C@H]2CC[C@H](N3CCC(c4ccccc4OC4CC4)CC3)CC2)cc1OC`: the Ki in test [1] stood at 11 nM; in test [2] it was 34 nM; at D(2) dopamine receptor, 133 nM.

The compound `COc1ccc(Cl)cc1S(=O)(=O)N[C@H]1CC[C@H](N2CCC(c3ccccc3OC3CC3)CC2)CC1` had a Ki on D(2) dopamine receptor of 154 nM.

On D(2) dopamine receptor, `O=S(=O)(N[C@H]1CC[C@@H](N2CCC(c3ccccc3OC3CC3)CC2)CC1)c1cc(Cl)ccc1F` came in with a Ki of 187 nM. On the same count and under the same terms, to `O=S(=O)(N[C@H]1CC[C@H](N2CCC(c3ccccc3OC3CC3)CC2)CC1)c1cc(Cl)ccc1F` belongs 159 nM; to `O=S(=O)(N[C@H]1CC[C@H](N2CCC(c3ccccc3OC3CC3)CC2)CC1)c1ccc2c(c1)OCO2`, 71 nM.

For `COc1ccc(S(=O)(=O)N[C@H]2CC[C@@H](N3CCC(c4ccccc4OCC(F)(F)F)CC3)CC2)cc1OC`, the Ki worked out at 1.8 nM in test [1], 123 nM in test [3], 2.2 nM in test [2] and 111 nM on D(2) dopamine receptor. The corresponding values for `COc1ccc(S(=O)(=O)N[C@H]2CC[C@H](N3CCC(c4ccccc4OCC(F)(F)F)CC3)CC2)cc1OC` are 21 nM, 368 nM, 23 nM and 83 nM. On to `O=S(=O)(N[C@H]1CC[C@H](N2CCC(c3ccccc3OCC(F)(F)F)CC2)CC1)c1ccc2c(c1)OCCO2`, for which the Ki was found to be 91 nM in test [3] and 23 nM at D(2) dopamine receptor. For the compound `O=S(=O)(N[C@H]1CC[C@@H](N2CCC(c3ccccc3OCC(F)(F)F)CC2)CC1)c1cc(Cl)ccc1F`, the Ki worked out at 5.9 nM in test [1] and 78 nM on D(2) dopamine receptor. For `O=S(=O)(N[C@H]1CC[C@H](N2CCC(c3ccccc3OCC(F)(F)F)CC2)CC1)c1cc(Cl)ccc1F` the same measures were 4.8 nM and 37 nM. `O=S(=O)(N[C@H]1CC[C@@H](N2CCC(c3ccccc3OCC(F)(F)F)CC2)CC1)c1cccc(OC(F)F)c1`: on D(2) dopamine receptor, the Ki came out at 85 nM. On to `O=S(=O)(N[C@H]1CC[C@H](N2CCC(c3ccccc3OCC(F)(F)F)CC2)CC1)c1cccc(OC(F)F)c1`, for which the affinity at D(2) dopamine receptor corresponds to a Ki of 129 nM. As for `O=S(=O)(N[C@H]1CC[C@H](N2CCC(c3ccccc3OCC(F)(F)F)CC2)CC1)c1ccc(OC(F)F)cc1`, the Ki in test [1] is 38 nM; at D(2) dopamine receptor, 104 nM. As to `COc1ccc(S(=O)(=O)N[C@H]2CC[C@H](N3CCC(c4ccccc4OCCF)CC3)CC2)cc1OC`, the inhibition constant Ki on D(2) dopamine receptor was found to be 284 nM. Take `COc1ccc(S(=O)(=O)N[C@H]2CC[C@H](N3CCC(c4ccccc4OCC(F)F)CC3)CC2)cc1OC`: the inhibition constant (Ki) in test [1] is 31 nM; on D(2) dopamine receptor, 88 nM.

In the case of `COc1ccc(S(=O)(=O)N[C@H]2CC[C@@H](N3CCC(c4ccc(F)cc4OC(C)C)CC3)CC2)cc1OC`, the Ki in test [2] stood at 12 nM; at D(2) dopamine receptor, 106 nM. In the case of `COc1ccc(S(=O)(=O)N[C@H]2CC[C@H](N3CCC(c4ccc(F)cc4OC(C)C)CC3)CC2)cc1OC`, at D(2) dopamine receptor, the Ki is 104 nM.

For the compound `COc1ccc(S(=O)(=O)N[C@H]2CC[C@@H](N3CCC(c4cc(F)ccc4OC(C)C)CC3)CC2)cc1OC`, at D(2) dopamine receptor, the Ki came out at 178 nM. As to `CC(C)Oc1ccccc1C1CCN([C@H]2CC[C@H](NS(=O)(=O)c3ccc(F)c(F)c3)CC2)CC1`, the Ki in test [1] came to 1.4 nM; in test [3], 1380 nM; in test [2], 87 nM; on D(2) dopamine receptor, 79 nM.

In turn, `COc1ccc(S(=O)(=O)N[C@H]2CC[C@@H](N3CCC(c4ccccc4OC4CC4)CC3)CC2)cc1OC` gave a Ki at D(2) dopamine receptor of 144 nM. On the same count and under the same terms, then `O=S(=O)(N[C@H]1CC[C@@H](N2CCC(c3ccccc3OCC(F)(F)F)CC2)CC1)c1ccc(OC(F)F)cc1`, with 154 nM. With `COc1ccc(S(=O)(=O)N[C@H]2CC[C@@H](N3CCC(c4ccccc4OCC(F)F)CC3)CC2)cc1OC`, the affinity on D(2) dopamine receptor, expressed as Ki, was 276 nM. On the same count and under the same terms, then `COc1ccc(S(=O)(=O)N[C@H]2CC[C@H](N3CCC(c4ccccc4OC(C)C)CC3)CC2)cc1OC`, with 55 nM; and `COc1ccc(Cl)cc1S(=O)(=O)N[C@H]1CC[C@@H](N2CCC(c3ccccc3OC3CC3)CC2)CC1`, with 129 nM. On to `O=S(=O)(N[C@H]1CC[C@@H](N2CCC(c3ccccc3OC3CC3)CC2)CC1)c1ccc2c(c1)OCO2`, for which the Ki in test [1] turned out to be 16 nM; at D(2) dopamine receptor, 66 nM. With `COc1ccc(S(=O)(=O)N[C@H]2CC[C@@H](N3CCC(c4ccccc4OC(C)C)CC3)CC2)cc1OC`, the Ki in test [1] is 2.2 nM; in test [2], 0.77 nM; on D(2) dopamine receptor, 144 nM.

With `CC(C)Oc1ccccc1C1CCN([C@H]2CC[C@@H](NS(=O)(=O)c3ccc(F)c(F)c3)CC2)CC1`, the affinity at D(2) dopamine receptor corresponds to a Ki of 79 nM. As to `COc1ccc(Cl)cc1S(=O)(=O)N[C@H]1CC[C@H](N2CCC(c3ccccc3OCC(F)(F)F)CC2)CC1`, the inhibition constant Ki was 10 nM in test [1] and 82 nM at D(2) dopamine receptor. In turn, `COc1ccc(S(=O)(=O)N[C@H]2CC[C@H](N3CCC(c4cc(F)ccc4OC(C)C)CC3)CC2)cc1OC` returned a Ki on D(2) dopamine receptor of 94 nM.

For `O=S(=O)(N[C@H]1CC[C@@H](N2CCC(c3ccccc3OCC(F)(F)F)CC2)CC1)c1ccc2c(c1)OCCO2`, the affinity on D(2) dopamine receptor corresponds to a Ki of 57 nM.

Turning to `COc1ccc(Cl)cc1S(=O)(=O)N[C@H]1CC[C@@H](N2CCC(c3ccccc3OCC(F)(F)F)CC2)CC1`, the figures for the Ki (in test [2]; at D(2) dopamine receptor) were 1.6 nM and 69 nM, respectively.

On to `COc1ccc(S(=O)(=O)N[C@H]2CC[C@@H](N3CCC(c4ccccc4OCCF)CC3)CC2)cc1OC`, for which the Ki worked out at 8.5 nM in test [1], 401 nM in test [3], 5.5 nM in test [2] and 201 nM at D(2) dopamine receptor.
